Laboratory results: the kinase profiling compilation of Christmann-Franck et al. (2016)

Tests used:
Assay in all cases: KINOMEscan competition binding
Conditions in all cases: compound 10.0 µM
[1] = test system: ABL1 (human), P00519 [E255K]
CASK (human) = CASK (human) (UniProt O14936)
CDK2 (human) = CDK2 (human) (UniProt P24941)
CDK4 CCND1 (human) = CDK4 CCND1 (human) (UniProt P11802+P24385)
CDKL1 (human) = CDKL1 (human) (UniProt Q00532)
CDKL5 (human) = CDKL5 (human) (UniProt O76039)
CPK1 (P.falciparum) = test system: CPK1 (P.falciparum)
DYRK1A (human) = DYRK1A (human) (UniProt Q13627)
EPHB6 (human) = EPHB6 (human) (UniProt O15197)
ERBB3 (human) = ERBB3 (human) (UniProt P21860)
GRK4 (human) = GRK4 (human) (UniProt P32298)
HIPK2 (human) = HIPK2 (human) (UniProt Q9H2X6)
HIPK4 (human) = HIPK4 (human) (UniProt Q8NE63)
HUNK (human) = HUNK (human) (UniProt P57058)
ICK (human) = ICK (human) (UniProt Q9UPZ9)
IRAK1 (human) = IRAK1 (human) (UniProt P51617)
IRAK4 (human) = IRAK4 (human) (UniProt Q9NWZ3)
KIT (human) = KIT (human) (UniProt P10721)
MAP2K5 (human) = MAP2K5 (human) (UniProt Q13163)
MAP3K13 (human) = MAP3K13 (human) (UniProt O43283)
MAST1 (human) = MAST1 (human) (UniProt Q9Y2H9)
MET (human) = MET (human) (UniProt P08581)
MTOR (human) = MTOR (human) (UniProt P42345)
MYLK3 (human) = MYLK3 (human) (UniProt Q32MK0)
NEK3 (human) = NEK3 (human) (UniProt P51956)
NIM1 (human) = NIM1 (human) (UniProt Q8IY84)
PI4KB (human) = PI4KB (human) (UniProt Q9UBF8)
[2] = test system: PIK3CA (human), P42336 [C420R]
[3] = test system: PIK3CA (human), P42336 [E545A]
[4] = test system: PIK3CA (human), P42336 [E545K]
[5] = test system: PIK3CA (human), P42336 [H1047Y]
PIK3CG (human) = PIK3CG (human) (UniProt P48736)
PRKCI (human) = PRKCI (human) (UniProt P41743)
ROCK1 (human) = ROCK1 (human) (UniProt Q13464)
RPS6KB1 (human) = RPS6KB1 (human) (UniProt P23443)
SBK1 (human) = SBK1 (human) (UniProt Q52WX2)
SGK3 (human) = SGK3 (human) (UniProt Q96BR1)
TAOK2 (human) = TAOK2 (human) (UniProt Q9UL54)
VRK2 (human) = VRK2 (human) (UniProt Q86Y07)

ERBB3 (human), sequence (P21860 whole entry, looked up): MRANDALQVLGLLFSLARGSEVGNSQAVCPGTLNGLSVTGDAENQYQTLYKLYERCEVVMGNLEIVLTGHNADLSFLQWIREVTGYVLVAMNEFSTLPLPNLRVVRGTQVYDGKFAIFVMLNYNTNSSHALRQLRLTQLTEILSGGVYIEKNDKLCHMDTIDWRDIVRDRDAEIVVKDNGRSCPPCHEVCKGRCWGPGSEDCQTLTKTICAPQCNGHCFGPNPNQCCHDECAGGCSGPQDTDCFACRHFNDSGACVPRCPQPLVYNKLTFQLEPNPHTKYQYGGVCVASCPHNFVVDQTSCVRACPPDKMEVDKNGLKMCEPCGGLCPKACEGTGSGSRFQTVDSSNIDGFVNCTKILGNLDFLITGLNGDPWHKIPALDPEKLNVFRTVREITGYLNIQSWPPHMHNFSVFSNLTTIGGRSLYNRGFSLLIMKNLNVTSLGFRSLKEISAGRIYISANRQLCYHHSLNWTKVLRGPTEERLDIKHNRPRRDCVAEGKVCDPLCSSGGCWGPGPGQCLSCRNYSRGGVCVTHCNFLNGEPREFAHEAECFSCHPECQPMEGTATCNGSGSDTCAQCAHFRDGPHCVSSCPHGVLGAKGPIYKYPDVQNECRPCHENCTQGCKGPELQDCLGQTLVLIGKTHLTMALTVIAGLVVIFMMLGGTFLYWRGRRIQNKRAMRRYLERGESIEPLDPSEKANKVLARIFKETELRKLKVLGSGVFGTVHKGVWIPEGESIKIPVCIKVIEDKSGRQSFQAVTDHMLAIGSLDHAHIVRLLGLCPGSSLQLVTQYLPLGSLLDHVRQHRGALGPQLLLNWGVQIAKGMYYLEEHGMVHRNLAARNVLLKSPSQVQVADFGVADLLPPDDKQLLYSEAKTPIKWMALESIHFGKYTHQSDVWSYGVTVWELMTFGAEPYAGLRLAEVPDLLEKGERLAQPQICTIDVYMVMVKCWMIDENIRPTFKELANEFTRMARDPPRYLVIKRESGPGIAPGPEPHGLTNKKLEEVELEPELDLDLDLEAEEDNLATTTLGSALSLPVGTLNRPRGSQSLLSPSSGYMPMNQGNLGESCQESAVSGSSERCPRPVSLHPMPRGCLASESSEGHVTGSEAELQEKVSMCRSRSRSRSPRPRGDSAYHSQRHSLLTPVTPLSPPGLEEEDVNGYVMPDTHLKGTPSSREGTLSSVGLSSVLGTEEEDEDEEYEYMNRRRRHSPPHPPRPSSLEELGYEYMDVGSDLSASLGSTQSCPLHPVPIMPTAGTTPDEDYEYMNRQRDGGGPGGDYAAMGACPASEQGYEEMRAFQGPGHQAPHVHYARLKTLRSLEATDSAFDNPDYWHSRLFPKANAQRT
EPHB6 (human), sequence (O15197 whole entry, looked up): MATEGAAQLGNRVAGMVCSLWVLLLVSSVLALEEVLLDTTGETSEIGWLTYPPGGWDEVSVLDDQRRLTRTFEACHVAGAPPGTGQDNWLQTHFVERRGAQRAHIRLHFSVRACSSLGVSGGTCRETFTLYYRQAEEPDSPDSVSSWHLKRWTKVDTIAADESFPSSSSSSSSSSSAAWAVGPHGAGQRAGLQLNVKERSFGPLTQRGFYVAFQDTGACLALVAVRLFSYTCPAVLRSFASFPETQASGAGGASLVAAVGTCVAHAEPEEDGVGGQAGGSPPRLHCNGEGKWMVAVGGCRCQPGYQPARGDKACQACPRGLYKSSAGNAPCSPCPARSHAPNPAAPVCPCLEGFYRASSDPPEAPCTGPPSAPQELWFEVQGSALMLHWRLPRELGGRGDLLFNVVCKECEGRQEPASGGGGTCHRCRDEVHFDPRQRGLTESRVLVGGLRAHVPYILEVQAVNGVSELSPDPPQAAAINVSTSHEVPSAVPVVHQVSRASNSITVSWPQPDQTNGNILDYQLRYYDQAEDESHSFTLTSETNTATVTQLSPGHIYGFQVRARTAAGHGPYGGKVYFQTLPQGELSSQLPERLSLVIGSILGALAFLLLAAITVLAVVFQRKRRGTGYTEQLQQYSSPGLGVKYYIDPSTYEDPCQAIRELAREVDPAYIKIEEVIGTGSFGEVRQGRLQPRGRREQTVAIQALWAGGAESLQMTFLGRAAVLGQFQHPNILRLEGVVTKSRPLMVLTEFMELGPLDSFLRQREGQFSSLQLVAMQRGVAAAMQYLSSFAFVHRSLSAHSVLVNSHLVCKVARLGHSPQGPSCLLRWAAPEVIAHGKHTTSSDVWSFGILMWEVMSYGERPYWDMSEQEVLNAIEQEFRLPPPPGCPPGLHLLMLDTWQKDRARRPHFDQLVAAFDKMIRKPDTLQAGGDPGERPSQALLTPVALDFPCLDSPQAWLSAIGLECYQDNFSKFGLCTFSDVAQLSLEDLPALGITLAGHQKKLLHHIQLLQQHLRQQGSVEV
IRAK1 (human), sequence (P51617 whole entry, looked up): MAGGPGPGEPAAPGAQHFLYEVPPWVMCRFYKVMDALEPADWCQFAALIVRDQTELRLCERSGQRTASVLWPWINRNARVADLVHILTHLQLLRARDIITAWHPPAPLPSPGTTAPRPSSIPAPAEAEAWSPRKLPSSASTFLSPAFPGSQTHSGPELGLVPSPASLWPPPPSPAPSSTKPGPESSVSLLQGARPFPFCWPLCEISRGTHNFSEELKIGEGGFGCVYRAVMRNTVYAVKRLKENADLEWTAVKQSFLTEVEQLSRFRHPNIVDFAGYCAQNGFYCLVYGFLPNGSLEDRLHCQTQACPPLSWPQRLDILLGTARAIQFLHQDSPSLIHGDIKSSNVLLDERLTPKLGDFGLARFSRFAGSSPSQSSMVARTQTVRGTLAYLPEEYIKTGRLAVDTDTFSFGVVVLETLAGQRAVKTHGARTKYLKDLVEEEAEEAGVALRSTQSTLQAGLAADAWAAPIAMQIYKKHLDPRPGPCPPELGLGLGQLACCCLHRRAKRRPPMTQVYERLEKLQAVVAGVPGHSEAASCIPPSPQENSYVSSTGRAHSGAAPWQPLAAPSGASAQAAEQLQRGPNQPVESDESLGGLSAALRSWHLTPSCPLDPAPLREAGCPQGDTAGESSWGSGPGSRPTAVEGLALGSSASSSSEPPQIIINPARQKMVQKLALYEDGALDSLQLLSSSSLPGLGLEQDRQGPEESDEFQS
CDKL1 (human), sequence (Q00532 whole entry, looked up): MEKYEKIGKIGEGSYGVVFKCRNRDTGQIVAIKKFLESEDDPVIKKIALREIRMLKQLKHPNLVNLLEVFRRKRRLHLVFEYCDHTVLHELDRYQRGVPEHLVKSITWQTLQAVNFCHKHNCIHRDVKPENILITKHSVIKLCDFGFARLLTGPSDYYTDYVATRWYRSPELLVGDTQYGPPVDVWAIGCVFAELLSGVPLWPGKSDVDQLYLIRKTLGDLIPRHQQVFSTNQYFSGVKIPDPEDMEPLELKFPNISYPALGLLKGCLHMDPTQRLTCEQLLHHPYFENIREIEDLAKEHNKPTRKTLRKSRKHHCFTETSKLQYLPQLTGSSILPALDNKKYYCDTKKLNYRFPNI
ABL1 (human), P00519 [E255K], sequence (P00519 whole entry E255K, looked up): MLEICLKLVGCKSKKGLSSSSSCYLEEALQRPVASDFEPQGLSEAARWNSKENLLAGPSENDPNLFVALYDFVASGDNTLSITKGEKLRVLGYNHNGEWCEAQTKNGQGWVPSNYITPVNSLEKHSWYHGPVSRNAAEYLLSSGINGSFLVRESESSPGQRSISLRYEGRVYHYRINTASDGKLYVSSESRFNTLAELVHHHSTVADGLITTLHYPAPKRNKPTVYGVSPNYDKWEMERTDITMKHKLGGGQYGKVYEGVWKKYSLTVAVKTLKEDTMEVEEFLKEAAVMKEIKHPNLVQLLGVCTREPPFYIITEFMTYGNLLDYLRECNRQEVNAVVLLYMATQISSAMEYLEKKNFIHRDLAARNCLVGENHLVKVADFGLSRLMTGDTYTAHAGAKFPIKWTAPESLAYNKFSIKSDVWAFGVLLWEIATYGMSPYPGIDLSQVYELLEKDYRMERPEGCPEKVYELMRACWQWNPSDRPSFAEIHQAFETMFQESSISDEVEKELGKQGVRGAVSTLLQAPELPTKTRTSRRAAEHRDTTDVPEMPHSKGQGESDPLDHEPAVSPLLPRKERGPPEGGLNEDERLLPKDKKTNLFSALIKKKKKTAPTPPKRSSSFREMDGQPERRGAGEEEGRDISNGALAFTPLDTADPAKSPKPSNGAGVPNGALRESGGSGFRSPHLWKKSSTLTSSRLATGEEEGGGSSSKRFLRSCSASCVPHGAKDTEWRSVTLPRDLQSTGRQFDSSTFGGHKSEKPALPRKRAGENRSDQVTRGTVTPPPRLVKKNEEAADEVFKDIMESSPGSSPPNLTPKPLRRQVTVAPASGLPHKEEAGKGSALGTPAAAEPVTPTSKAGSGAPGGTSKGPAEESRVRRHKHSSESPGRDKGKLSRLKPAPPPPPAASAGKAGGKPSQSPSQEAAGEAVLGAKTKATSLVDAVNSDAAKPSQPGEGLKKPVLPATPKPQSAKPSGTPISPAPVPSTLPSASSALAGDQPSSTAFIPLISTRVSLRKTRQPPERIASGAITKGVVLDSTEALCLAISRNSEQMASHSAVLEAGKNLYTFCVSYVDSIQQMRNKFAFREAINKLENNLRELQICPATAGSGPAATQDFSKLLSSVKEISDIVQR
SBK1 (human), sequence (Q52WX2 whole entry, looked up): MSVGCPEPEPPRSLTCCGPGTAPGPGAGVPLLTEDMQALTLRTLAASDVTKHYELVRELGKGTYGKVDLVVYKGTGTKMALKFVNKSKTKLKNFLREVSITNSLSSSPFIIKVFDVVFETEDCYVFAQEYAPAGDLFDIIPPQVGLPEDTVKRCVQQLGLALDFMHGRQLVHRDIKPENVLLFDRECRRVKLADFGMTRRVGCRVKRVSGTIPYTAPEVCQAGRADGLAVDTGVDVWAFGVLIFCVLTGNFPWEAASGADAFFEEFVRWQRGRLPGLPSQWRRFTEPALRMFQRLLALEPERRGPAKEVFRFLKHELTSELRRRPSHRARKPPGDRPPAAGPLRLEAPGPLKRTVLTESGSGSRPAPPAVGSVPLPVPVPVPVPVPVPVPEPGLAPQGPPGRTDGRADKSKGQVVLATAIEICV

Row | Structure (SMILES) | kinase still bound, per cent of control [1] | kinase still bound, per cent of control (CASK (human)) | kinase still bound, per cent of control (CDK2 (human)) | kinase still bound, per cent of control (CDK4 CCND1 (human)) | kinase still bound, per cent of control (CDKL1 (human)) | kinase still bound, per cent of control (CDKL5 (human)) | kinase still bound, per cent of control (CPK1 (P.falciparum)) | kinase still bound, per cent of control (DYRK1A (human)) | kinase still bound, per cent of control (EPHB6 (human)) | kinase still bound, per cent of control (ERBB3 (human)) | kinase still bound, per cent of control (GRK4 (human)) | kinase still bound, per cent of control (HIPK2 (human)) | kinase still bound, per cent of control (HIPK4 (human)) | kinase still bound, per cent of control (HUNK (human)) | kinase still bound, per cent of control (ICK (human)) | kinase still bound, per cent of control (IRAK1 (human)) | kinase still bound, per cent of control (IRAK4 (human)) | kinase still bound, per cent of control (KIT (human)) | kinase still bound, per cent of control (MAP2K5 (human)) | kinase still bound, per cent of control (MAP3K13 (human)) | also measured
1 | O=C(NC1CC1)c1cccc(-c2ccc3c(NC(=O)C4CC4)n[nH]c3c2)c1 | 55% | 82% | 3.4% | 94% | 58% | 42% | 18% | 98% | 1.4% | 69% | 14% | 36% | 40% | 64% | 13% | 82% | 88% | 37% | 5% | 64% | kinase still bound, per cent of control (MAST1 (human)): 94%; kinase still bound, per cent of control (MET (human)): 75%; kinase still bound, per cent of control (MTOR (human)): 100%; kinase still bound, per cent of control (MYLK3 (human)): 46%; kinase still bound, per cent of control (NEK3 (human)): 75%; kinase still bound, per cent of control (NIM1 (human)): 100%; kinase still bound, per cent of control (PI4KB (human)): 84%; kinase still bound, per cent of control [2]: 100%; kinase still bound, per cent of control [3]: 93%; kinase still bound, per cent of control [4]: 95%; kinase still bound, per cent of control [5]: 89%; kinase still bound, per cent of control (PIK3CG (human)): 90%; kinase still bound, per cent of control (PRKCI (human)): 74%; kinase still bound, per cent of control (ROCK1 (human)): 57%; kinase still bound, per cent of control (RPS6KB1 (human)): 100%; kinase still bound, per cent of control (SBK1 (human)): 100%; kinase still bound, per cent of control (SGK3 (human)): 42%; kinase still bound, per cent of control (TAOK2 (human)): 20%; kinase still bound, per cent of control (VRK2 (human)): 100%
2 | C=CC(=O)Nc1cccc(Nc2nc(N[C@H]3CC[C@H](N(C)C)CC3)nc3c2ncn3C(C)C)c1 | 70% | 92% | 100% | 40% | 100% | 100% | 98% | 20% | 74% | 94% | 43% | 17% | 63% | 85% | 100% | 1.8% | 2.5% | 52% | 59% | 79% | kinase still bound, per cent of control (MAST1 (human)): 83%; kinase still bound, per cent of control (MET (human)): 100%; kinase still bound, per cent of control (MTOR (human)): 100%; kinase still bound, per cent of control (MYLK3 (human)): 100%; kinase still bound, per cent of control (NEK3 (human)): 60%; kinase still bound, per cent of control (NIM1 (human)): 66%; kinase still bound, per cent of control (PI4KB (human)): 100%; kinase still bound, per cent of control [2]: 89%; kinase still bound, per cent of control [3]: 100%; kinase still bound, per cent of control [4]: 100%; kinase still bound, per cent of control [5]: 90%; kinase still bound, per cent of control (PIK3CG (human)): 100%; kinase still bound, per cent of control (PRKCI (human)): 93%; kinase still bound, per cent of control (ROCK1 (human)): 16%; kinase still bound, per cent of control (RPS6KB1 (human)): 87%; kinase still bound, per cent of control (SBK1 (human)): 20%; kinase still bound, per cent of control (SGK3 (human)): 85%; kinase still bound, per cent of control (TAOK2 (human)): 66%; kinase still bound, per cent of control (VRK2 (human)): 11%
3 | CCN1CCN(Cc2ccc(Nc3ncc4c(n3)N(C)c3ccccc3C(=O)N4C)cc2C(F)(F)F)CC1 | 0.1% | 15% | 68% | 65% | 98% | 100% | 74% | 51% | 21% | 75% | 56% | 100% | 100% | 59% | 80% | 25% | 100% | 57% | 35% | 53% | kinase still bound, per cent of control (MAST1 (human)): 100%; kinase still bound, per cent of control (MET (human)): 36%; kinase still bound, per cent of control (MTOR (human)): 39%; kinase still bound, per cent of control (MYLK3 (human)): 100%; kinase still bound, per cent of control (NEK3 (human)): 100%; kinase still bound, per cent of control (NIM1 (human)): 57%; kinase still bound, per cent of control (PI4KB (human)): 100%; kinase still bound, per cent of control [2]: 18%; kinase still bound, per cent of control [3]: 6.2%; kinase still bound, per cent of control [4]: 24%; kinase still bound, per cent of control [5]: 3.3%; kinase still bound, per cent of control (PIK3CG (human)): 0%; kinase still bound, per cent of control (PRKCI (human)): 100%; kinase still bound, per cent of control (ROCK1 (human)): 94%; kinase still bound, per cent of control (RPS6KB1 (human)): 48%; kinase still bound, per cent of control (SBK1 (human)): 6.9%; kinase still bound, per cent of control (SGK3 (human)): 86%; kinase still bound, per cent of control (TAOK2 (human)): 0.1%; kinase still bound, per cent of control (VRK2 (human)): 100%
4 | CN(C)C/C=C/C(=O)Nc1cccc(Nc2ncc3c(n2)N(C)c2ccccc2C(=O)N3C)c1 | 0.1% | 39% | 94% | 78% | 83% | 100% | 74% | 73% | 4.3% | 89% | 66% | 89% | 76% | 47% | 70% | 19% | 73% | 66% | 45% | 40% | kinase still bound, per cent of control (MAST1 (human)): 100%; kinase still bound, per cent of control (MET (human)): 48%; kinase still bound, per cent of control (MTOR (human)): 74%; kinase still bound, per cent of control (MYLK3 (human)): 100%; kinase still bound, per cent of control (NEK3 (human)): 58%; kinase still bound, per cent of control (NIM1 (human)): 21%; kinase still bound, per cent of control (PI4KB (human)): 87%; kinase still bound, per cent of control [2]: 72%; kinase still bound, per cent of control [3]: 67%; kinase still bound, per cent of control [4]: 100%; kinase still bound, per cent of control [5]: 51%; kinase still bound, per cent of control (PIK3CG (human)): 0%; kinase still bound, per cent of control (PRKCI (human)): 97%; kinase still bound, per cent of control (ROCK1 (human)): 49%; kinase still bound, per cent of control (RPS6KB1 (human)): 63%; kinase still bound, per cent of control (SBK1 (human)): 7.6%; kinase still bound, per cent of control (SGK3 (human)): 90%; kinase still bound, per cent of control (TAOK2 (human)): 0%; kinase still bound, per cent of control (VRK2 (human)): 73%
